Test system: BT474 tumors
Experiment: Targeted metabolomic analysis of 99 metabolites in BT474 tumors
Assay type: in vivo, mouse
Conditions: VY-3-135 vs vehicle
Description: All metabolomic experiments were performed in serum-like modified Eagle's medium (SMEM). SMEM contains 54 different nutrients that are found in the bloodstream at concentrations that are physiologically relevant to humans. SMEM was supplemented with 10% or 1% fetal bovine serum (FBS; Life Technologies). Cells were grown in normoxia (atmospheric oxygen) or hypoxia (1% oxygen) while being incubated in uniformly labeled ^13C2-acetate (0.100 mM; Cambridge Isotope Laboratories). Lengths of incubation are described in the figure legends. For extraction of metabolites from cultured cells, SMEM medium was aspirated and cells were washed once in ice-cold PBS. Metabolites were extracted by adding a solution of LC-MS grade methanol/acetonitrile/water (5:3:2) to the well. Plates were incubated at 4° C. for 5 minutes on a rocker and then the extraction solution was collected. The metabolite extract was cleared by centrifugation at 15,000×g for 10 minutes at 4° C. Supernatants were transferred to LC-MS silanized glass vials with PTFE caps and either run immediately on the LC-MS or stored at −80° C. For extraction of metabolites from tumors, tumor bearing mice were sacrificed by exsanguination under anesthesia and tumors were immediately excised and flash frozen in liquid nitrogen. Frozen tumors were weighed and then extracted at 40 mg/mL in extraction solution using a tissue homogenizer (Bullet Blender) and stainless steel beads. The metabolite extract was cleared twice by centrifugation at 15,000×g for 10 minutes at 4° C. Supernatants were transferred to LC-MS silanized glass vials with PTFE caps and either run immediately on the LC-MS or stored at −80° C.
LC-MS analysis was performed on a Q Exactive Hybrid Quadrupole-Orbitrap HF-X MS (ThermoFisher Scientific) equipped with a HESI II probe and coupled to a Vanquish Horizon UHPLC system (ThermoFisher Scientific). 0.002 ml of sample is injected and separated by HILIC chromatography on a ZIC-pHILIC 2.1-mm. Samples are separated by ammonium carbonate, 0.1% ammonium hydroxide, pH 9.2, and mobile phase B is acetonitrile. […] The relevant MS parameters were as listed: sheath gas, 40; auxiliary gas, 10; sweep gas, 1; auxiliary gas heater temperature, 350° C.; spray voltage, 3.5 kV for the positive mode and 3.2 kV for the negative mode. Capillary temperature was set at 325° C., and funnel RF level at 40. Samples were analyzed in full MS scan with polarity switching at scan range 65 to 975 m/z; 120,000 resolution; automated gain control (AGC) target of 1E6; and maximum injection time (max IT) of 100 milliseconds. Identification and quantitation of metabolites was performed using an annotated compound library and TraceFinder 4.1 software. The “M+X” nomenclature refers to the isotopolog for that given metabolite. Isotopologs are chemically identical metabolites that differ only in their number of carbon-13 atoms. For instance, “M+2 citrate” means that two of the six carbons in citrate are carbon-13 while the other four are carbon-12. “M+4 citrate” means that four of the six carbons in citrate are carbon-13 while the other two are carbon-12.
A targeted metabolomic analysis of 99 metabolites in vehicle versus VY-3-135 treated BT474 tumors was performed (FIG. 6E and Table 2).

CCn1c(C(O)(c2ccccc2)c2ccccc2)nc2ccc(C(=O)NC[C@@H](C)O)cc21 [VY-3-135, (R)-1-ethyl-2-(hydroxydiphenylmethyl)-N-(2-hydroxypropyl)-1H-benzo[d]imidazole-6-carboxamide]
Log2 FC (VY/Veh) 2-aminobutyrate: −0.5166 | Log2 FC (VY/Veh) 3 -hydroxybutryate: −1.001 | Log2 FC (VY/Veh) 3-phosphoglycerate: −0.5802 | Log2 FC (VY/Veh) 4-hydroxyproline: −0.725 | Log2 FC (VY/Veh) ADP: −1.452 | Log2 FC (VY/Veh) AMP: −0.6555 | Log2 FC (VY/Veh) ATP: −2.026 | Log2 FC (VY/Veh) CDP: −1.642 | Log2 FC (VY/Veh) CDP-choline: −2.603 | Log2 FC (VY/Veh) CDP-ethanolamine: −1.552 | Log2 FC (VY/Veh) CMP: −0.8199 | Log2 FC (VY/Veh) DHAP/G3P: −2.029 | Log2 FC (VY/Veh) FBP: −1.71 | Log2 FC (VY/Veh) GDP: −2.599 | Log2 FC (VY/Veh) GMP: −1.275 | Log2 FC (VY/Veh) GSH: −0.6903 | Log2 FC (VY/Veh) GSSG: 0.2094 | Log2 FC (VY/Veh) IMP: 1.067 | Log2 FC (VY/Veh) PEP: −1.207 | Log2 FC (VY/Veh) SAH: −0.3532 | Log2 FC (VY/Veh) SAM: −1.16 | Log2 FC (VY/Veh) UDP: −1.495 | Log2 FC (VY/Veh) UDP-GlcNAc: −0.8007 | Log2 FC (VY/Veh) UMP: −0.4024 | Log2 FC (VY/Veh) UTP: −2.182 | Log2 FC (VY/Veh) acetyl-aspartate: −0.7575 | Log2 FC (VY/Veh) acetyl-carnitine: −0.5449 | Log2 FC (VY/Veh) acetyl-glycine: −1.037 | Log2 FC (VY/Veh) acetyl-putrescine: −1.423 | Log2 FC (VY/Veh) adenine: 1.003 | Log2 FC (VY/Veh) adenosine: 1.879 | Log2 FC (VY/Veh) aketoglutarate: 0.9192 | Log2 FC (VY/Veh) alanine: −0.6739 | Log2 FC (VY/Veh) arginine: 0.7229 | Log2 FC (VY/Veh) arginosuccinate: −0.1741 | Log2 FC (VY/Veh) asparagine: −1.225 | Log2 FC (VY/Veh) aspartate: 0.009996 | Log2 FC (VY/Veh) betaine: −0.4739 | Log2 FC (VY/Veh) carbamoyl-asp: −0.787 | Log2 FC (VY/Veh) carnitine: −0.6768 | Log2 FC (VY/Veh) choline: −0.5304 | Log2 FC (VY/Veh) cis-aconitate: −0.2247 | Log2 FC (VY/Veh) citrate: −0.1134 | Log2 FC (VY/Veh) citrulline: −0.3937 | Log2 FC (VY/Veh) creatine: −0.5321 | Log2 FC (VY/Veh) creatinine: 0.01869 | Log2 FC (VY/Veh) cystathionine: −1.232 | Log2 FC (VY/Veh) cystine: −0.4837 | Log2 FC (VY/Veh) cytidine: 1.244 | Log2 FC (VY/Veh) cytosine: 1.232 | Log2 FC (VY/Veh) ethanolamine-P: −1.364 | Log2 FC (VY/Veh) glucose-6-P: 0.03691 | Log2 FC (VY/Veh) glucose/hexose: 0.9908 | Log2 FC (VY/Veh) glutamate: −0.5429 | Log2 FC (VY/Veh) glutamine: 0.09203 | Log2 FC (VY/Veh) glycerol: 0.1079 | Log2 FC (VY/Veh) glycerol-3-P: −0.8487 | Log2 FC (VY/Veh) glycine: −0.4034 | Log2 FC (VY/Veh) guanine: 1.969 | Log2 FC (VY/Veh) guanosine: 3.356 | Log2 FC (VY/Veh) histidine: −0.4238 | Log2 FC (VY/Veh) hypoxanthine: 0.3548 | Log2 FC (VY/Veh) isoleucine: −1.483 | Log2 FC (VY/Veh) lactate: −1.761 | Log2 FC (VY/Veh) leucine: −0.6361 | Log2 FC (VY/Veh) lysine: −1.026 | Log2 FC (VY/Veh) malate: 0.0239 | Log2 FC (VY/Veh) malonate: 0.1254 | Log2 FC (VY/Veh) methionine: −1.631 | Log2 FC (VY/Veh) methyl-lysine: −1.396 | Log2 FC (VY/Veh) myo-inositol: −0.4307 | Log2 FC (VY/Veh) niacin/nicotinate: 1.977 | Log2 FC (VY/Veh) nicotinamide: 0.1254 | Log2 FC (VY/Veh) nicotinamide N-oxide: 4.808 | Log2 FC (VY/Veh) ornithine: −0.7516 | Log2 FC (VY/Veh) pantothenate: −0.6181 | Log2 FC (VY/Veh) phenylalanine: −0.5091 | Log2 FC (VY/Veh) phosphocholine: −0.7924 | Log2 FC (VY/Veh) phosphocreatine: 0.324 | Log2 FC (VY/Veh) proline: −0.4024 | Log2 FC (VY/Veh) pyridoxine: 0.3808 | Log2 FC (VY/Veh) pyruvate: −0.8037 | Log2 FC (VY/Veh) riboflavin: −2.12 | Log2 FC (VY/Veh) ribose: −0.5026 | Log2 FC (VY/Veh) ribose-P: 0.2634 | Log2 FC (VY/Veh) sedoheptulose-P: −0.2584 | Log2 FC (VY/Veh) serine: 1.09 | Log2 FC (VY/Veh) succinate: −1.793 | Log2 FC (VY/Veh) succinyladenosine: −0.8738 | Log2 FC (VY/Veh) succinylcysteine: −0.9561 | Log2 FC (VY/Veh) succinylglutathione: −1.861 | Log2 FC (VY/Veh) taurine: 0.1159 | Log2 FC (VY/Veh) threonine: −0.9186 | Log2 FC (VY/Veh) thymidine: 2.328 | Log2 FC (VY/Veh) tryptophan: −0.2045 | Log2 FC (VY/Veh) tyrosine: −0.8432 | Log2 FC (VY/Veh) urate: −0.6288 | Log2 FC (VY/Veh) valine: −0.5942 | Log2 FC (VY/Veh) xanthine: −0.8286
